Measurements taken from US10287267B2, “Isoquinolin-3-yl carboxamides and preparation and use thereof” (Samumed, LLC, priority 2016, dated 2019).
Where two headings read alike, the source gives them in different places.

Experiments:
[1] = system: Wnt pathway (Sp5-Luc reporter, TCF/LEF binding sites) in SW480 colon carcinoma cells; assay: Screening assay for Wnt activity: Sp5-Luc reporter gene assay; type: cell-based, human; settings: Homo sapiens; for EC50: Sp5-Luc reporter, SW480 cells, 36 to 48 hours; for inhibition at 10 µM: SW480, read-out: percent inhibition at 10 μM;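 for all read-outs here: firefly luciferase luminescence read in stably transduced SW480 cells carrying the Sp5 promoter reporter with eight TCF/LEF sites, compounds given in 0.1% DMSO final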
Method: The screening assay for Wnt activity is described as follows.
Following incubation, 15 μl of BriteLite Plus luminescence reagent (Perkin Elmer) was added to each well of the 384-well assay plates. The plates were placed on an orbital shaker for 2 min and then luminescence was quantified using the Envision (Perkin Elmer) plate reader.

recombinant GSK3β kinase = recombinant GSK3β kinase (Homo sapiens (Human), UniProt P49841); assay: GSK3β kinase assay (Ser/Thr 09 peptide Z-lyte FRET); type: biochemical; settings: 46 μM ATP, 1 h room temperature;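 note: kinase activity read as coumarin to fluorescein emission ratio, 11-point threefold dilutions from 10 µM to 0.0003 µM in duplicate, unphosphorylated and phosphorylated peptide as 0% and 100% controls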
[2] = system: Tau phosphorylation at Ser396 (pSer396); assay: Tau phosphorylation assay (pSer396 ELISA / western blot) in SH-SY5Y cells; type: cell-based, human; settings: Homo sapiens, read-out: pSer396 Tau EC50;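 note: EC50 for reduction of Tau pSer396 in lysed cells, measured by colorimetric ELISA or chemiluminescent western blot, both using the same pSer396 antibody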
[3] = target: recombinant DYRK1A kinase (Homo sapiens (Human), UniProt Q13627); assay: DYRK1A kinase assay (Ser/Thr 18 peptide Z-lyte FRET); type: biochemical; settings: 30 μM ATP, 1 h room temperature;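 note: Read-out is the coumarin to fluorescein emission ratio, referenced to unphosphorylated (0%) and phosphorylated (100%) Ser/Thr 18 peptide controls, values from dose-response curves by non-linear regression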
[4] = system: α-smooth muscle actin (αSMA) positive LL29 cells; assay: Inhibition of fibrotic process: αSMA in TGF-β1 treated primary human fibroblasts from IPF patients; type: cell-based; settings: Homo sapiens, Fibroblast; for EC50: 96 h, Table 8, LL29 fibroblasts from IPF patients, TGF-β1 20 ng/mL, 4 days, dose-response 10 μM to 0.94 nM; for inhibition at 10 µM: read-out: percent value in parentheses beside EC50 >10 μM;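 for all read-outs here: controls were TGF-β1 stimulated wells with DMSO vehicle (positive) and cells given DMSO alone (negative), cultured in F12 medium with 1% fetal bovine serum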
IL-6 = IL-6 inhibition in LPS-stimulated human peripheral blood mononuclear cells (HTRF); type: cell-based; settings: Homo sapiens, PBMC; for inhibition at 10 µM: read-out: percent value in parentheses beside EC50 >10 μM; for EC50: Table 9, huPBMCs, LPS 50 ng/mL, 22 hours, dose-response starting from 10 μM;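 for all read-outs here: IL-6 detected by HTRF with an XL665- and Cryptate-labelled anti-IL-6 antibody pair, samples run in duplicate, EC50 obtained from a four-parameter Levenberg-Marquardt curve fit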
Method: After 22 hour incubation, a mixture of anti-IL6 XL665 and anti-IL-6 Cryptate diluted in reconstitution buffer (Catalog #62IL6PEC, Cisbio Inc., Bedford, Mass.) was added to each well. […] All samples were processed in duplicate. […] EC50 was determined using software generated by Dotmatics Limited (Windhill Bishops Stortford Herts, UK) using the Levenberg-Marquardt 4 parameter fitting procedure with finite different gradients.

[5] = system: SW480 colon carcinoma cells; assay: Cell viability assay (CellTiter-Glo); type: cell-based, human; settings: Homo sapiens; for EC50: 96 h, SW480 cells, CellTiter-Glo, four days incubation; for inhibition at 10 µM: SW480, read-out: percent inhibition at 10 μM
[6] = SH-SY5Y cells, overnight (16-18 h) exposure

recombinant GSK3β kinase, sequence (P49841 whole entry): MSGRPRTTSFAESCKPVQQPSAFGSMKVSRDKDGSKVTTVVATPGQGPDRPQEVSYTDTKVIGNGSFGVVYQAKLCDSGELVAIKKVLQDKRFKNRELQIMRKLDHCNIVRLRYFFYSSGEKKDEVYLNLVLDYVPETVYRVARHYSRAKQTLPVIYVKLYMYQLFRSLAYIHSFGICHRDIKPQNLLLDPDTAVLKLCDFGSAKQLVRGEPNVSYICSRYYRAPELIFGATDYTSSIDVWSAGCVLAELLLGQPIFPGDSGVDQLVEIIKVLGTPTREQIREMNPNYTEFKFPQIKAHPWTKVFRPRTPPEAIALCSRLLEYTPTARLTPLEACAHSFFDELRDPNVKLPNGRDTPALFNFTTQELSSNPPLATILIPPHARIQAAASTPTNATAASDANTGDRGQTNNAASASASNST

SMILES | EC50 [1] | EC50 (recombinant GSK3β kinase) | EC50 ([2]; SH-SY5Y) | EC50 [3] | EC50 [4] | inhibition at 10 µM (IL-6) | EC50 (IL-6) | EC50 [5] | EC50 [2, 6] | inhibition at 10 µM [5] | inhibition at 10 µM [1] | inhibition at 10 µM [4]
Cn1cc(-c2ccc3cnc(NC(=O)C4C(C)(C)C4(C)C)cc3c2)nn1 [Compound 277, 2,2,3,3-Tetramethyl-N-(6-(1-methyl-1H-1,2,3-triazol-4-yl)isoquinolin-3-yl) cyclopropane-1-carboxamide] | 5260 nM | 104 nM | 1080 nM | 2.3 nM | 245 nM | 4% | > 10000 nM | 1400 nM | – | – | – | –
Cc1nnc(-c2ccc3cnc(NC(=O)C4CCN(CCC(F)(F)F)CC4)cc3c2)n1C [Compound 279, N-(6-(4,5-Dimethyl-4H-1,2,4-triazol-3-yl)isoquinolin-3-yl)-1-(3,3,3-trifluoropropyl)piperidine-4-carboxamide] | 5650 nM | 14 nM | – | 7.8 nM | 1200 nM | 14.2% | > 10000 nM | > 10000 nM | 498 nM | 52.4% | – | –
CC(C)CN1CCC(F)(C(=O)Nc2cc3cc(-c4nncn4C)ccc3cn2)CC1 [Compound 280, 4-Fluoro-1-isobutyl-N-(6-(4-methyl-4H-1,2,4-triazol-3-yl)isoquinolin-3-yl) piperidine-4-carboxamide] | 2320 nM | 185 nM | – | 10.8 nM | 909 nM | 11.6% | > 10000 nM | 9570 nM | 677 nM | – | – | –
CC(C)CN1CCC(F)(C(=O)Nc2cc3cc(-c4cn(C)nn4)ccc3cn2)CC1 [Compound 281, 4-Fluoro-1-isobutyl-N-(6-(1-methyl-1H-1,2,3-triazol-4-yl)isoquinolin-3-yl) piperidine-4-carboxamide] | > 10000 nM | 71 nM | – | 8.1 nM | 486 nM | 0% | > 10000 nM | > 10000 nM | 518 nM | – | 47% | –
CCN1CCC(F)(C(=O)Nc2cc3cc(-c4cn(C)nn4)ccc3cn2)CC1 [Compound 282, 1-Ethyl-4-fluoro-N-(6-(1-methyl-1H-1,2,3-triazol-4-yl)isoquinolin-3-yl) piperidine-4-carboxamide] | > 10000 nM | 134 nM | – | 11.5 nM | 1940 nM | 2.4% | > 10000 nM | 6610 nM | 973 nM | – | 49.3% | –
O=C(Nc1cc2cc(-c3cnn4c3CN(CCF)CC4)ccc2cn1)C1CCC(F)(F)CC1 [Compound 283, 4,4-Difluoro-N-(6-(5-(2-fluoroethyl)-4,5,6,7-tetrahydropyrazolo[1,5-a]pyrazin-3-yl)isoquinolin-3-yl)cyclohexane-1-carboxamide] | 2490 nM | 62 nM | – | 7 nM | 782 nM | – | 5450 nM | 3120 nM | 411 nM | – | – | –
Cn1cc(-c2ccc3cnc(NC(=O)CN4CCCC4)cc3c2)cn1 [Compound 284, N-(6-(1-Methyl-1H-pyrazol-4-yl)isoquinolin-3-yl)-2-(pyrrolidin-1-yl) acetamide] | 1870 nM | 37 nM | – | 7.1 nM | 2340 nM | – | 1180 nM | 2670 nM | 359 nM | – | – | –
CCn1cc(-c2ccc3cnc(NC(=O)CN4CCCC4)cc3c2)cn1 [Compound 285, N-(6-(1-Ethyl-1H-pyrazol-4-yl)isoquinolin-3-yl)-2-(pyrrolidin-1-yl) acetamide] | 3400 nM | 149 nM | – | 44.2 nM | 1470 nM | – | 2270 nM | 7020 nM | 1580 nM | – | – | –
O=C(CN1CCCC1)Nc1cc2cc(-c3cnn(C4CC4)c3)ccc2cn1 [Compound 286, N-(6-(1-Cyclopropyl-1H-pyrazol-4-yl)isoquinolin-3-yl)-2-(pyrrolidin-1-yl) acetamide] | 3140 nM | 186 nM | – | 64.9 nM | > 10000 nM | – | 1230 nM | 3290 nM | 1150 nM | – | – | 16.4%
CC(C(=O)Nc1cc2cc(-c3cnn(C)c3)ccc2cn1)N1CCCC1 (stereo not drawn) [Compound 288, N-(6-(1-Methyl-1H-pyrazol-4-yl)isoquinolin-3-yl)-2-(pyrrolidin-1-yl) propanamide] | 1200 nM | 20 nM | – | 27.3 nM | 532 nM | – | 1240 nM | 2660 nM | 159 nM | – | – | –
C[C@@H]1CCCN1CC(=O)Nc1cc2cc(-c3cnn(C)c3)ccc2cn1 [Compound 289, (R)—N-(6-(1-Methyl-1H-pyrazol-4-yl)isoquinolin-3-yl)-2-(2-methylpyrrolidin-1-yl)acetamide] | 2650 nM | 62 nM | – | 13.7 nM | > 10000 nM | – | 3200 nM | 7760 nM | 185 nM | – | – | 14.3%
C[C@H]1CCCN1CC(=O)Nc1cc2cc(-c3cnn(C)c3)ccc2cn1 [Compound 290, (S)—N-(6-(1-Methyl-1H-pyrazol-4-yl)isoquinolin-3-yl)-2-(2-methylpyrrolidin-1-yl)acetamide] | 5230 nM | 75 nM | – | 5.8 nM | 1060 nM | – | 4780 nM | 3780 nM | 490 nM | – | – | –
Cn1cc(-c2ccc3cnc(NC(=O)CN4CC5CC5C4)cc3c2)cn1 (stereo not drawn) [Compound 291, 2-(3-Azabicyclo[3.1.0]hexan-3-yl)-N-(6-(1-methyl-1H-pyrazol-4-yl)isoquinolin-3-yl)acetamide] | 4640 nM | 43 nM | – | 8.2 nM | > 10000 nM | – | 9830 nM | > 10000 nM | 716 nM | 24.4% | – | 49.6%
Cn1cc(-c2ccc3cnc(NC(=O)CN4C5CCC4CC5)cc3c2)cn1 [Compound 292, 2-(7-Azabicyclo[2.2.1]heptan-7-yl)-N-(6-(1-methyl-1H-pyrazol-4-yl)isoquinolin-3-yl)acetamide] | 3380 nM | 173 nM | 1350 nM | 7.8 nM | 2220 nM | – | 1120 nM | 2820 nM | – | – | – | –
CC1CCN(CC(=O)Nc2cc3cc(-c4cnn(C)c4)ccc3cn2)CC1 [Compound 293, N-(6-(1-Methyl-1H-pyrazol-4-yl)isoquinolin-3-yl)-2-(4-methylpiperidin-1-yl)acetamide] | 3220 nM | 59 nM | – | 5 nM | 7770 nM | – | 1170 nM | 2860 nM | 668 nM | – | – | –
Cn1cc(-c2ccc3cnc(NC(=O)CN4CCC(C(F)(F)F)CC4)cc3c2)cn1 [Compound 294, N-(6-(1-Methyl-1H-pyrazol-4-yl)isoquinolin-3-yl)-2-(4-(trifluoromethyl)piperidin-1-yl)acetamide] | 5190 nM | 41 nM | – | 12.4 nM | > 10000 nM | – | 6230 nM | 4150 nM | 905 nM | – | – | 41.3%
Cn1cc(-c2ccc3cnc(NC(=O)CN4CCC5(CC4)CC5)cc3c2)cn1 [Compound 296, N-(6-(1-Methyl-1H-pyrazol-4-yl)isoquinolin-3-yl)-2-(6-azaspiro[2.5]octan-6-yl)acetamide] | 3480 nM | 80 nM | – | 14.3 nM | 1960 nM | – | 1580 nM | 3460 nM | 978 nM | – | – | –
O=C(Nc1cc2cc(-c3cnn(C4CC4)c3)ccc2cn1)C1CCN(CCC(F)(F)F)CC1 [Compound 297, N-(6-(1-Cyclopropyl-1H-pyrazol-4-yl)isoquinolin-3-yl)-1-(3,3,3-trifluoropropyl)piperidine-4-carboxamide] | 4810 nM | 155 nM | – | 23.7 nM | 447 nM | – | 1170 nM | 5720 nM | 1420 nM | – | – | –
Cn1ncc(-c2ccc3cnc(NC(=O)C4CCC(F)(F)CC4)cc3c2)c1CN1CCC1 [Compound 298, N-(6-(5-(Azetidin-1-ylmethyl)-1-methyl-1H-pyrazol-4-yl)isoquinolin-3-yl)-4,4-difluorocyclohexane-1-carboxamide] | 3230 nM | 125 nM | – | 13.5 nM | 1340 nM | – | 5530 nM | 2380 nM | 1390 nM | – | – | –
Cn1ncc(-c2ccc3cnc(NC(=O)C4CCC(F)(F)CC4)cc3c2)c1CN1CCCC1 [Compound 299, 4,4-Difluoro-N-(6-(1-methyl-5-(pyrrolidin-1-ylmethyl)-1H-pyrazol-4-yl)isoquinolin-3-yl)cyclohexane-1-carboxamide] | 1530 nM | 44 nM | – | 6.7 nM | 1210 nM | – | 4530 nM | 2240 nM | 573 nM | – | – | –
